Assay: Removal of free drug during purification with acidified sugar solution: concentration in the permeate
Source text: Without being bound by theory, it is surmised that encapsulation of therapeutic agents into liposomes results in some portion of the therapeutic agent becoming associated with or trapped within the lipid bilayer, particularly when encapsulating therapeutic agents with low water solubility or high hydrophobicity. Purifying the liposomal composition with an acidified aqueous solution may remove therapeutic agent that is associated with or trapped within the lipid bilayer, resulting in a liposome formulation that contains a therapeutic agent that is only encapsulated within the internal medium of the liposomes. […] As the washing volume increases—that is, as the liposomal composition is washed with an increasing amount of acidified aqueous sugar solution—the amount of Compound 9 detected in the permeate peaks, and then decreases. The peak is thought to result from a rapid release of Compound 9 that is associated with or trapped in the lipid bilayer into the acidified aqueous sugar solution. […] In other words, purifying the liposomal composition with an acidified aqueous solution may allow for any therapeutic agent merely associated with or trapped within the lipid bilayer to release into the acidified aqueous solution, thus preventing a rapid release from occurring in the bloodstream of a patient upon administration.
A formulation of liposomes containing Compound 9 was prepared and purified as described in Examples 1A, 1B, and 2. The liposome formulation comprised DSPC/Cholesterol/PEGylated (58/40/2 mol %) and used 250 mM AS as the loading aid.
During the purification of the formulation using tangential flow filtration, the concentration of Compound 9 in the permeate was measured, as shown below in Table 7. FIG. 3 depicts the concentration of Compound 9 in the permeate vs. the washing volume.

Compound 9 detected in the permeate (after washing with about 300-400 mL of acidified aqueous sugar solution (FIG. 3)): little
Concentration of Compound x in the permeate (washing volume 1×): 7100 ng/mL
Concentration of Compound x in the permeate (washing volume 3×): 15900 ng/mL
Concentration of Compound x in the permeate (washing volume 6×): 3500 ng/mL
Concentration of Compound x in the permeate (washing volume 9×): 1400 ng/mL
Concentration of Compound x in the permeate (washing volume 12×): 1000 ng/mL
Compound: CCN(CC)C1CCN(CC[C@H](CSc2ccccc2)Nc2ccc(S(=O)(=O)NC(=O)c3ccc(N4CCN(CC5=C(c6ccc(Cl)cc6)CCC(C)(C)C5)CC4)cc3)cc2S(=O)(=O)C(F)(F)F)CC1 [Compound 9]

From US20240350411A1, “METHODS FOR PREPARING LIPOSOMAL FORMULATIONS” (Celator Pharmaceuticals, Inc., priority 2021, published 2024)
